Reference: patent US20110144281A1, “AMPHIPHILIC POLYMERS HAVING A CHOLANE CORE” (VALORISATION-RECHERCHE, SOCIETE EN COMMANDITE, priority 2007, published 2011)

What was measured:
[1] = Loading of a drug: solubilisation of ibuprofen in water; format: physicochemical; details: after vigorous agitation
[2] = literature (Reis et al. 2004); cited from earlier work
[3] = TEM of aggregates (freeze-fracture etching); format: physicochemical; details: TEM images; sodium cholate at 0.040 molal, CA-PEG4 above CAC
Description: For transmission electron microscopy (TEM), different sample concentrations were prepared in milli-Q water for freeze-fracture. A small amount of these solutions were dropped onto a good sample carrier, and then frozen in liquid propane. The frozen samples were then mounted on the sample holder of a BAL-TEC freeze etching instrument (model BAF060). Samples were then fractured, let sublimate for less than 30 seconds before the newly created surface was coated from an angle of 45° (shadowed) with 2 nm of platinum-doped carbon. A 10 nm layer of carbon was then applied perpendicularly. The samples were placed in distilled water to make the platinum-carbon replica float on the water surface. They were then deposited on carbon-coated copper grids. The replicas were examined on a JEOL JEM-2000FX TEM operating at an acceleration voltage of 80 kV.
TEM images of the star polymers shown in FIG. 8 provide unequivocal evidence for the formation of micellar aggregates.

| Structure (SMILES) | solubility in neutral water [1] | CAC of sodium cholate [2] | shape of aggregates [3] |
| --- | --- | --- | --- |
| CC(C)Cc1ccc(C(C)C(=O)O)cc1 (stereo not drawn) [Ibuprofen] | very limited | – | – |
| C[C@H](CCC(=O)[O-])[C@H]1CC[C@H]2[C@@H]3[C@H](O)C[C@@H]4C[C@H](O)CC[C@]4(C)[C@H]3C[C@H](O)[C@]12C.[Na+] [sodium cholate] | – | 8 millimolal | cylindrical |
